Experimental data from US8163778B2 (Hoffmann-LA Roche Inc., priority 2007, dated 2012).
pIC50: −log10 of the molar value.

What follows are compounds tested against T1, human liver FBPase (Homo sapiens, UniProt P09467) (assay: FBPase assay (malachite green phosphate release)). Conditions: recombinant human liver FBPase, 50 μM fructose-1,6-bisphosphate.
T1 construct: made in house; host or cells: E. coli
T1 sequence (P09467 2-338 limits assumed): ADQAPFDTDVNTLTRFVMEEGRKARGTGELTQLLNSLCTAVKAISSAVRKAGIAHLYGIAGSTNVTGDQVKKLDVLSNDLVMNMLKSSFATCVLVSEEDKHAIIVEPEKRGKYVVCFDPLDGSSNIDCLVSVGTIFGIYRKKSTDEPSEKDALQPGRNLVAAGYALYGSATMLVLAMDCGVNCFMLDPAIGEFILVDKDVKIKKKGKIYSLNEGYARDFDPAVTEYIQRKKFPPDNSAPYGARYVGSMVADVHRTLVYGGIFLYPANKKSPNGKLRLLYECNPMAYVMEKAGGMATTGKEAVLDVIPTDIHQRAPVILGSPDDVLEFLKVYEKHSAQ
Type: biochemical
Procedure: The following tests were carried out for evaluating the inhibitory activity of the compounds of the present invention against human liver FBPase (Swissprot Data base reference PO9467, entry F16P_HUMAN).
Human liver FBPase cDNA (NM_000507) was purchased from Origene Technologies, Inc, subcloned in a vector for expression in E. Coli., and sequenced. Recombinant human liver FBPase (hlFBPase) was purified according to the following protocol that uses heat denaturation similarly to that described by El-Maghrabi et al. [El-Maghrabi, M. R. et al. “Isolation of a human liver fructose-1,6-bisphosphatase cDNA and expression of the protein in Escherichia coli.” J Biol Chem 268:9466-9472, 1993.]. Briefly, E. coli cells, transiently expressing very high levels of soluble and active human liver FBPase, were suspended in 20 mM Tris-HCl pH 7.5, 1 mM EDTA, 1 mM DTT and were lysed by French press. The soluble extract was heat denatured at 65° C. for 5 min, and insoluble, denatured proteins were removed by centrifugation. The extract was then applied to a BioRad Macro-Prep High Q column equilibrated with 20 mM Tris-HCl pH 7.5, 1 mM EDTA, 1 mM DTT and the flow-through (containing FBPase activity) was collected and applied to a BioRad Macro-Prep HS column equilibrated with 20 mM HEPES pH 7.2, 1 mM DTT. A gradient of increasing NaCl concentration was then applied to the HS column and fractions were collected. Fractions containing active FBPase were pooled and further purified by size exclusion chromatography on a Sephacryl S200 column equilibrated in 20 mM Tris-HCl pH 7.5, 150 mM NaCl, 1 mM EDTA, 1 mM DTT. Purity of the enzyme preparation was >90% as assessed by Mass spectrometry.
Recombinant human liver FBPase (hlFBPase) activity was assayed through measuring the inorganic phosphate release that results from the hydrolysis of Fructose-1,6-bisphosphate by the enzyme. As described by Baykov A. A. et al. in [Baykov A. A et al., “Malachite Green procedure for orthophosphate determination and its use in alkaline phosphatase-based enzyme immunoassays”. Anal. Biochem., 171:266-270, 1988], inorganic phosphate can be readily quantified by spectrophotometry at 620 nm after complexation with ammonium molybdate/malachite green reagent. Enzymatic reaction was carried out with modifications of the procedure described by Wright S. W. et al. [Wright S. W. et al., “Anilinoquinazoline inhibitors of Fructose-1,6-bisphosphatase bind to a novel allosteric site: synthesis, in vitro characterization, and X-ray crystallography”. J. Med. Chem. 45:3865-3877, 2002]. Specifically, the reaction was carried out in 96 well plates in a final volume of 100 μl in the presence or in the absence of allosteric inhibitors. Reaction was started adding 25 ng of hlFBPase to the reaction mixture containing 50 mM HEPES-KOH buffer pH 7.2, 2 mM MgCl2, 2 mM EDTA, 1 mM DTT, 50 μM fructose-1,6-bisphosphate and 1% DMSO. After 50 minutes incubation at room temperature, the phosphate released was allowed to form a colored complex for 10 min by adding 150 μl of ammonium molybdate/malachite green reagent containing 0.03% malachite green, 0.2% ammonium molybdate, 0.05% Triton X-100 and 0.7 M H2SO4 in water that was stirred for 30 min at room temperature and filtered through 0.2 μm filter. Under these conditions, the assay was linear with time and able to detect FBPase inhibition after spectrophotometric read-out at 620 nm.

How did the pIC50 turn out when `Cc1cc(S(=O)(=O)NC(=O)Nc2cc(C(F)(F)F)cc(CO)n2)sc1CCO` [Compound 106, 5-(2-Hydroxyethyl)-N-{[6-(hydroxymethyl)-4-(trifluoromethyl)pyridin-2-yl]carbamoyl}-4-methylthiophene-2-sulfonamide] was run?
The pIC50 was 5.83.

`Cc1cccc(S(=O)(=O)NC(=O)Nc2cccc(Cl)n2)c1` [Compound 72, N-[(6-Chloropyridin-2-yl)carbamoyl]-3-methylbenzenesulfonamide] was tested. Which pIC50 did it give?
Its pIC50 is 5.34.

How did the pIC50 turn out when `COCCc1sc(S(=O)(=O)NC(=O)Nc2cc(Br)cc(NCC(F)F)n2)cc1C` [Compound 19, N-({4-Bromo-6-[(2,2-difluoroethyl)amino]pyridin-2-yl}carbamoyl)-5-(2-methoxyethyl)-4-methylthiophene-2-sulfonamide] was run?
The pIC50 was 6.70.

How did the pIC50 turn out when `CNC(=O)Nc1cc(OC)cc(NC(=O)NS(=O)(=O)c2csc(C)c2)n1` [Compound 9, N-[[[4-methoxy-6-[[(methylamino)carbonyl]amino]-2-pyridinyl]amino]carbonyl]-5-methyl-3-thiophenesulfonamide] was run?
The pIC50 was 6.94.

`COc1cccc2c(S(=O)(=O)NC(=O)Nc3cc(SC)cc(N)n3)cn(C)c12` [Compound 53, N-{[6-Amino-4-(methylthio)pyridin-2-yl]carbamoyl}-7-methoxy-1-methyl-1H-indole-3-sulfonamide] was tested. Which pIC50 did it give?
The pIC50 was 5.83.

`COCCc1sc(S(=O)(=O)NC(=O)Nc2cc(C(F)(F)F)cc(Cl)n2)cc1C` [Compound 90, N-{[6-chloro-4-(trifluoromethyl)pyridin-2-yl]carbamoyl}-5-(2-methoxyethyl)-4-methylthiophene-2-sulfonamide] was tested. Which pIC50 did it give?
The pIC50 was 5.97.

`COCCc1sc(S(=O)(=O)NC(=O)Nc2cc(OC)cc(-c3noc(C)n3)n2)cc1C` [Compound 116] was tested. Which pIC50 did it give?
The pIC50 was 5.83.

How did the pIC50 turn out when `CC(=O)OCCc1sc(S(=O)(=O)NC(=O)Nc2cc(C(F)(F)F)cc(Cl)n2)cc1C` [Compound 93, 2-{5-[({[6-chloro-4-(trifluoromethyl)pyridin-2-yl]carbamoyl}amino)sulfonyl]-3-methyl-2-thienyl}ethyl acetate] was run?
The pIC50 was 6.07.

`CC(=O)OCCc1sc(S(=O)(=O)NC(=O)Nc2cc(C(F)(F)F)c(F)c(N)n2)cc1C` [Compound 81, 2-{5-[({[6-Amino-5-fluoro-4-(trifluoromethyl)pyridin-2-yl]carbamoyl}amino)sulfonyl]-3-methyl-2-thienyl}ethyl acetate] was tested. Which pIC50 did it give?
Its pIC50 is 6.18.

How did the pIC50 turn out when `CNC(=O)Nc1cc(OC)cc(NC(=O)NS(=O)(=O)c2cc3cc(Cl)ccc3s2)n1` [Compound 1, 5-Chloro-N-({4-methoxy-6-[(methylcarbamoyl)amino]pyridin-2-yl}carbamoyl)-1-benzothiophene-2-sulfonamide] was run?
Its pIC50 is 7.24.

With `COCCc1sc(S(=O)(=O)NC(=O)Nc2cc(SC)cc(-c3noc(C)n3)n2)cc1C` [Compound 117, 5-(2-methoxyethyl)-4-methyl-N-{[6-(5-methyl-1,2,4-oxadiazol-3-yl)-4-(methylthio)pyridin-2-yl]carbamoyl}thiophene-2-sulfonamide] as the compound, how does the pIC50 read?
The pIC50 was 5.79.

`CNC(=O)Nc1cc(C(=O)NC)cc(NC(=O)NS(=O)(=O)c2cc(C)c(CCOC)s2)n1` [Compound 103, 2-[({[5-(2-Methoxyethyl)-4-methyl-2-thienyl]sulfonyl}carbamoyl)amino]-N-methyl-6-[(methylcarbamoyl)amino]isonicotinamide] was tested. Which pIC50 did it give?
The pIC50 was 5.24.

`Cc1cccc(S(=O)(=O)NC(=O)Nc2cc(Br)ccn2)c1` [Compound 60, N-[(4-Bromopyridin-2-yl)carbamoyl]-3-methylbenzenesulfonamide] was tested. Which pIC50 did it give?
Its pIC50 is 5.68.

`COCCc1sc(S(=O)(=O)NC(=O)Nc2cc(C(N)=NO)cc(N)n2)cc1C` [Compound 108, 2-Amino-N′-hydroxy-6-[({[5-(2-methoxyethyl)-4-methyl-2-thienyl]sulfonyl}carbamoyl)amino]pyridine-4-carboximidamide] was tested. Which pIC50 did it give?
Its pIC50 is 4.80.

`COC(=O)c1cc(C(F)(F)F)cc(NC(=O)NS(=O)(=O)c2cc(C)c(CCO)s2)n1` [Compound 105, Methyl-6-[({[5-(2-hydroxyethyl)-4-methyl-2-thienyl]sulfonyl}carbamoyl)amino]-4-(trifluoromethyl)pyridine-2-carboxylate] was tested. Which pIC50 did it give?
The pIC50 was 5.58.

How did the pIC50 turn out when `COCCc1sc(S(=O)(=O)NC(=O)Nc2cc(SC)cc(NCCO)n2)cc1C` [Compound 48, N-({6-[(2-Hydroxyethyl)amino]-4-(methylthio)pyridin-2-yl}carbamoyl)-5-(2-methoxyethyl)-4-methylthiophene-2-sulfonamide] was run?
The pIC50 was 5.99.

With `CCOc1cc(NC(N)=O)nc(NC(=O)NS(=O)(=O)c2cc(C)c(CCOC)s2)c1` [Compound 40, N-{[6-(Carbamoylamino)-4-ethoxypyridin-2-yl]carbamoyl}-5-(2-methoxyethyl)-4-methylthiophene-2-sulfonamide] as the compound, how does the pIC50 read?
The pIC50 was 6.20.

`COCCc1sc(S(=O)(=O)NC(=O)Nc2cc(C(N)=O)cc(N)n2)cc1C` [Compound 102, 2-Amino-6-[({[5-(2-methoxyethyl)-4-methyl-2-thienyl]sulfonyl}carbamoyl)amino]isonicotinamide] was tested. Which pIC50 did it give?
Its pIC50 is 4.38.

How did the pIC50 turn out when `Nc1cc(Br)cc(NC(=O)NS(=O)(=O)c2ccc3c(c2)OCCO3)n1` [Compound 37, N-[(6-Amino-4-bromopyridin-2-yl)carbamoyl]-2,3-dihydro-1,4-benzodioxine-6-sulfonamide] was run?
Its pIC50 is 6.24.

How did the pIC50 turn out when `Cc1cc(C(F)(F)F)cc(NC(=O)NS(=O)(=O)c2ccc(C)s2)n1` [Compound 121, 5-Methyl-N-{[6-methyl-4-(trifluoromethyl)pyridin-2-yl]carbamoyl}thiophene-2-sulfonamide] was run?
Its pIC50 is 5.93.

How did the pIC50 turn out when `Cc1cc(S(=O)(=O)NC(=O)Nc2cc(C(F)(F)F)ccn2)sc1CCO` [Compound 78, 5-(2-Hydroxyethyl)-4-methyl-N-{[4-(trifluoromethyl)pyridin-2-yl]carbamoyl}thiophene-2-sulfonamide] was run?
The pIC50 was 6.04.

With `Nc1cc(Br)cc(NC(=O)NS(=O)(=O)c2coc3ccccc23)n1` [Compound 82, N-[(6-Amino-4-bromopyridin-2-yl)carbamoyl]-1-benzofuran-3-sulfonamide] as the compound, how does the pIC50 read?
The pIC50 was 5.73.

With `COCCc1sc(S(=O)(=O)NC(=O)Nc2cc(Br)cc(NC(N)=O)n2)cc1C` [Compound 4, N-{[4-Bromo-6-(carbamoylamino)pyridin-2-yl]carbamoyl}-5-(2-methoxyethyl)-4-methylthiophene-2-sulfonamide] as the compound, how does the pIC50 read?
Its pIC50 is 7.20.

With `COCCc1sc(S(=O)(=O)NC(=O)Nc2cc(C(F)(F)F)cc(N)n2)cc1C` [Compound 85, N-{[6-Amino-4-(trifluoromethyl)pyridin-2-yl]carbamoyl}-5-(2-methoxyethyl)-4-methylthiophene-2-sulfonamide] as the compound, how does the pIC50 read?
The pIC50 was 6.12.

`CNC(=O)Nc1cc(OC)cc(NC(=O)NS(=O)(=O)c2csc3ccc(OC)cc23)n1` [Compound 5, 5-Methoxy-N-({4-methoxy-6-[(methylcarbamoyl)amino]pyridin-2-yl}carbamoyl)-1-benzothiophene-3-sulfonamide] was tested. Which pIC50 did it give?
The pIC50 was 7.18.

`CCOc1cc(N)nc(NC(=O)NS(=O)(=O)c2cc(C)c(CCOC)s2)c1` [Compound 64, N-[(6-Amino-4-ethoxypyridin-2-yl)carbamoyl]-5-(2-methoxyethyl)-4-methylthiophene-2-sulfonamide] was tested. Which pIC50 did it give?
Its pIC50 is 5.66.

`CC(=O)OCCc1sc(S(=O)(=O)NC(=O)Nc2cc(C(F)(F)F)ccn2)cc1C` [Compound 77, 2-{3-Methyl-5-[({[4-(trifluoromethyl)pyridin-2-yl]carbamoyl}amino)sulfonyl]-2-thienyl}ethyl acetate] was tested. Which pIC50 did it give?
The pIC50 was 6.09.
